# Source: patent US5849729A, “Use of hydrolyzed cocoa butter for percutaneous absorption” (Hershey Foods Corporation, priority 1995, dated 1998)
# Values joined by “and” are separate entries in the source; they are usually repeats but may differ in a detail not shown here. Identical values can stand only once. “Also recorded” adds a separate entry of the source.
# Columns and labels:
# [1] = currently available / commercial formulations, trunk skin; cited from earlier work
# [2] = In-vitro percutaneous absorption of retinoic acid and triamcinolone acetonide from two cocoa butter vehicles (Franz cells, 48 h); settings: for % Abs (% Absorbed) / % Absorbed / total absorption: percent of applied dose
# From the text: The objective of this study was to measure the permeation of retinoic acid and triamcinolone acetonide through human skin in-vitro from two cocoa butter vehicles.
# Two cocoa butter vehicles supplied by Hershey Foods Corporation were utilized: (1) pure cocoa butter and (2) partially hydrolyzed cocoa butter emulsion. Radioactive [11,12-^3 H] [retinoic acid (NET 920, Lot 2930-067, specific activity 1 mCi/ml) and [6,7-^3 H]-triamcinolone acetonide (NET 470, Lot 2904-170, specific activity 1 mCi/ml) were obtained from Dupont-New England Nuclear Corporation, Boston, Mass.
# Each of the two cocoa butter vehicles was spiked separately with ^3 H-retinoic acid and ^3 H-Triamcinolone acetonide to give a total of four radioactive formulations for study. This was done by adding 25 μl (containing 25 μCi) of each tracer solution to approximately 1 gram of each vehicle and mixing with the tip of the dispensing micropipette. The pure cocoa butter vehicle was liquified by holding it under warm tap water prior to spiking. This was not done with the partially hydrolyzed cocoa butter emulsion. Neither formulation was used for three days after spiking to allow for diffusional mixing to take place. Final radioactive concentrations of each formulation were: […]
# Human trunk skin without obvious signs of disease was used throughout. It was obtained within 24 hours of death, dermatomed to a thickness of approximately 0.25 mm, cryopreserved and sealed in water vapor-impermeableplastic bags. It was stored at -70° C. until the day of use then thawed by placing the bag in 37° C. water.
# Skin from a single donor was cut into multiple sections large enough to fit on 0.8 cm^2 Franz cells. The dermal chamber was filled with isotonic saline, pH 7.4, into which a small magnetic stirring bar was placed. The epidermal chamber was left open to the ambient laboratory environment, approximately 22° C. and 40-60% RH. The cells were placed in a diffusion apparatus in which the dermal receptor solution was stirred magnetically at 600 RPM and its temperature maintained at 37° C.
# To assure the integrity of each skin section, its permeability to tritiated water was determined before application of the test formulations. Following a brief (0.5-1 hour) equilibration period, 150 μl ^3 H2 O (specific activity 0.3 μCi/ml) was layered across the top of the skin section so that the entire exposed surface was covered. After 5 minutes the aqueous layer was removed and the surface of the skin carefully blotted dry. At t=0.5 hour the saline receptor phase was removed and analyzed for radioactive content by liquid scintillation counting. Skin specimens in which absorption of ^3 H2 O was less than 1.25 μl were considered acceptable.
# Subsequently, each test formulation was applied at a target dose of 10 mg (cream) or 10 μl (butter). The cream formulation (partially hydrolyzed cocoa butter emulsion) was applied from the smooth, rounded-tip of a glass rod, the exact amount determined by weighing the rod before and after application. The butter formulation (pure cocoa butter) was first liquified under warm tap water, allowed to cool to room temperature, then applied with a 10 μl positive displacement micropipette prior to resolidifying. At 4, 8, 12, 24, 36 and 48 hours the receptor solution was removed in its entirety, replaced with fresh solution, and a 1 ml aliquot taken and assayed for radioactive content by liquid scintillation counting.
# A 1 ml aliquot of each receptor sample containing ^3 H2 O, ^3 H-retinoic acid, or ^3 H-triamcinolone acetonide was placed in a 7 ml glass scintillation vial and gelled by the addition of 5 ml Opti-Fluor (Packard Instrument Co., Meriden, Conn.). These were counted in a Packard Tri-Carb Model 1900CA Liquid scintillation Analyzer equipped with internal standard and automatic quench correction.
# [3] = butter (pure cocoa butter), 48 h, individual skin sections
# [4] = butter, 48 h, average of three donors
# [5] = butter, 48 h, average per skin donor (n=4), listed as RETINOIC ACID
compound,measurement,setting,value
CC1=C(/C=C/C(C)=C/C=C/C(C)=C/C(=O)O)C(C)(C)CCC1 [retinoic acid],total absorption from currently available formulations,[1],1-5 % of the dose
same,absorption period versus current formulations,"[2]; admixed with cocoa butter or partially hydrolyzed cocoa butter emulsion, in words",able to sustain a longer absorption period than has been demonstrated with current retinoic acid formulations
same,steady state rate of absorption,[2]; both cocoa butter formulations,approximately 15 ng/cm^2 /hr
same,rate of absorption profile / flux,"[2]; both cocoa butter formulations, in words",higher than generally seen with other retinoic acid formulations; also recorded: relatively high flux rates
same,Penet (Total Penetration),[2]; [3],729.80 and 954.98 and 769.08 and 941.38 and 725.19 and 871.67 and 741.10 and 1267.53 and 552.40 and 552.46 and 685.17 and 944.68
same,% Abs (% Absorbed),[2]; [3],14.59% and 19.10% and 15.38% and 18.82% and 14.50% and 17.43% and 14.82% and 25.35% and 11.05% and 13.70% and 18.89%
same,"Rate of absorption, R1","[2]; butter (pure cocoa butter), sample R1, mid-t 2 h, individual skin sections",36.55 ng/cm^2 /hr and 48.20 ng/cm^2 /hr and 39.43 ng/cm^2 /hr and 51.22 ng/cm^2 /hr and 55.25 ng/cm^2 /hr and 66.87 ng/cm^2 /hr and 50.92 ng/cm^2 /hr and 79.43 ng/cm^2 /hr and 40.64 ng/cm^2 /hr and 39.67 ng/cm^2 /hr and 51.71 ng/cm^2 /hr and 75.03 ng/cm^2 /hr
same,"Rate of absorption, R3","[2]; butter (pure cocoa butter), sample R3, mid-t 10 h, individual skin sections",23.55 ng/cm^2 /hr and 28.39 ng/cm^2 /hr and 24.05 ng/cm^2 /hr and 29.61 ng/cm^2 /hr and 22.32 ng/cm^2 /hr and 21.53 ng/cm^2 /hr and 20.69 ng/cm^2 /hr and 34.12 ng/cm^2 /hr and 16.59 ng/cm^2 /hr and 15.24 ng/cm^2 /hr and 17.69 ng/cm^2 /hr and 25.75 ng/cm^2 /hr
same,"Rate of absorption, R4","[2]; butter (pure cocoa butter), sample R4, mid-t 18 h, individual skin sections",14.13 ng/cm^2 /hr and 23.33 ng/cm^2 /hr and 15.22 ng/cm^2 /hr and 18.56 ng/cm^2 /hr and 18.11 ng/cm^2 /hr and 20.56 ng/cm^2 /hr and 20.18 ng/cm^2 /hr and 33.78 ng/cm^2 /hr and 15.63 ng/cm^2 /hr and 14.10 ng/cm^2 /hr and 16.64 ng/cm^2 /hr and 23.97 ng/cm^2 /hr
same,"Rate of absorption, R5","[2]; butter (pure cocoa butter), sample R5, mid-t 30 h, individual skin sections",16.12 ng/cm^2 /hr and 19.00 ng/cm^2 /hr and 18.23 ng/cm^2 /hr and 16.25 ng/cm^2 /hr and 11.93 ng/cm^2 /hr and 15.30 ng/cm^2 /hr and 12.34 ng/cm^2 /hr and 23.05 ng/cm^2 /hr and 8.38 ng/cm^2 /hr and 9.60 ng/cm^2 /hr and 10.78 ng/cm^2 /hr and 16.34 ng/cm^2 /hr
same,"Rate of absorption, R6","[2]; butter (pure cocoa butter), sample R6, mid-t 42 h, individual skin sections",15.54 ng/cm^2 /hr and 17.94 ng/cm^2 /hr and 14.86 ng/cm^2 /hr and 24.92 ng/cm^2 /hr and 11.83 ng/cm^2 /hr and 16.34 ng/cm^2 /hr and 13.15 ng/cm^2 /hr and 24.58 ng/cm^2 /hr and 8.20 ng/cm^2 /hr and 9.16 ng/cm^2 /hr and 10.53 ng/cm^2 /hr and 14.03 ng/cm^2 /hr
same,Total Penetration,[2]; [4],811.29
same,Penet (Total Penetration),[2]; [5],848.81 and 901.37 and 683.68
same,Penet (Total Penetration),"[2]; butter, 48 h, average per skin donor (n=4), listed as Retinoic Acid",683.68 and 901.37 and 848.81
same,"Rate of absorption, R1","[2]; butter, R1, mid-t 2 h, average of three donors",52.91 ng/cm^2 /hr
same,"Rate of absorption, R1","[2]; butter, R1, mid-t 2 h, average per skin donor (n=4), listed as RETINOIC ACID",43.85 ng/cm^2 /hr and 63.12 ng/cm^2 /hr and 51.76 ng/cm^2 /hr
same,"Rate of absorption, R1","[2]; butter, R1, mid-t 2 h, average per skin donor (n=4), listed as Retinoic Acid",51.76 ng/cm^2 /hr and 63.12 ng/cm^2 /hr and 43.85 ng/cm^2 /hr
same,"Rate of absorption, R3","[2]; butter, R3, mid-t 10 h, average of three donors",23.30 ng/cm^2 /hr
same,"Rate of absorption, R3","[2]; butter, R3, mid-t 10 h, average per skin donor (n=4), listed as RETINOIC ACID",26.40 ng/cm^2 /hr and 24.67 ng/cm^2 /hr and 18.82 ng/cm^2 /hr
same,"Rate of absorption, R3","[2]; butter, R3, mid-t 10 h, average per skin donor (n=4), listed as Retinoic Acid",18.82 ng/cm^2 /hr and 24.67 ng/cm^2 /hr and 26.40 ng/cm^2 /hr
same,"Rate of absorption, R4","[2]; butter, R4, mid-t 18 h, average of three donors",19.52 ng/cm^2 /hr
same,"Rate of absorption, R4","[2]; butter, R4, mid-t 18 h, average per skin donor (n=4), listed as RETINOIC ACID",17.81 ng/cm^2 /hr and 23.16 ng/cm^2 /hr and 17.59 ng/cm^2 /hr
same,"Rate of absorption, R4","[2]; butter, R4, mid-t 18 h, average per skin donor (n=4), listed as Retinoic Acid",17.59 ng/cm^2 /hr and 23.16 ng/cm^2 /hr and 17.81 ng/cm^2 /hr
same,"Rate of absorption, R5","[2]; butter, R5, mid-t 30 h, average of three donors",14.78 ng/cm^2 /hr
same,"Rate of absorption, R5","[2]; butter, R5, mid-t 30 h, average per skin donor (n=4), listed as RETINOIC ACID",17.40 ng/cm^2 /hr and 15.66 ng/cm^2 /hr and 11.28 ng/cm^2 /hr
same,"Rate of absorption, R5","[2]; butter, R5, mid-t 30 h, average per skin donor (n=4), listed as Retinoic Acid",11.28 ng/cm^2 /hr and 15.66 ng/cm^2 /hr and 17.40 ng/cm^2 /hr
same,"Rate of absorption, R6","[2]; butter, R6, mid-t 42 h, average of three donors",15.09 ng/cm^2 /hr
same,"Rate of absorption, R6","[2]; butter, R6, mid-t 42 h, average per skin donor (n=4), listed as RETINOIC ACID",18.31 ng/cm^2 /hr and 16.48 ng/cm^2 /hr and 10.48 ng/cm^2 /hr
same,"Rate of absorption, R6","[2]; butter, R6, mid-t 42 h, average per skin donor (n=4), listed as Retinoic Acid",10.48 ng/cm^2 /hr and 16.48 ng/cm^2 /hr and 18.31 ng/cm^2 /hr
same,% Absorbed / total absorption,[2]; [4],16.2%
same,% Absorbed / total absorption,"[2]; butter, 48 h, average of three donors, listed as Retinoic Acid",16.22%
same,% Abs (% Absorbed),[2]; [5],16.97% and 18.02% and 13.67%
